Experimental data taken from US20090215758A1, “Use of 2,5-Disubstituted Thiazol-4-One Derivatives in Drugs” (Gruenenthal GmbH, priority 2005, published 2009).

Tests used:
[1] = molecular target: T1, vanilloid receptor 1 (VR1/TRPV1) of the rat species (Rattus norvegicus, UniProt O35433); assay: Functional study on vanilloid receptor 1, FLIPR Ca2+ assay in rat dorsal root ganglia cells; format: cell-based; conditions: for inhibition at 10 µM / activation at 10 µM: test compound 10 μM; for inhibition at 10 µM: 5 min incubation, then 100 nM capsaicin, relative to maximum inhibition with 10 μM capsaicin, read-out: VR1 (rat) (% inhibition compared to 10 μM CP); for activation at 10 µM: Ca2+ signal relative to 10 μM capsaicin (CP), read-out: VR1 (rat) (% stimulation compared to 10 μM CP); for EC50: unit inferred
T1 construct: The spinal column is removed from beheaded rats; from tissue; host or cells: primary cells from rat dorsal root ganglia (DRGs)
Method: The agonistic or antagonistic action of the substances to be studied on the vanilloid receptor 1 (VR1/TRPV1) of the rat species can be determined with the following assay. In this assay, the Ca^2+ current through the receptor channel is quantified with the aid of a Ca^2+-sensitive dye (Fluo-4 type, Molecular Probes Europe BV, Leiden the Netherlands) in a fluorescent imaging plate reader (FLIPR, Molecular Devices, Sunnyvale, USA).
Complete medium: 50 ml HAMS F12 Nutrient Mixture (Gibco Invitrogen GmbH, Karlsruhe, Germany) with 10% by volume of FCS (fetal calf serum, Gibco Invitrogen GmbH, Karlsruhe, Germany, heat-inactivated);
2 mM L-glutamine (Sigma, Munich, Germany);
1% by weight of AA solution (antibiotic/antimycotic solution, PAA, Pasching, Austria) and 25 ng/ml of NGF medium (2.5 S, Gibco Invitrogen GmbH, Karlsruhe, Germany)
Cell culture plate: poly-D-lysine-coated, black 96-hole plates with a clear bottom (96 well black/clear plate, BD Biosciences, Heidelberg, Germany) are additionally coated with laminin (Gibco Invitrogen GmbH, Karlsruhe, Germany) by diluting laminin to a concentration of 100 μg/ml with PBS (Ca—Mg-free PBS, Gibco Invitrogen GmbH, Karlsruhe, Germany). Aliquots having a concentration of 100 μg/ml of laminin are withdrawn and stored at −20° C. The aliquots are diluted with PBS in a ratio of 1:10 to 10 μg/ml of laminin and in each case 50 μl of the solution are pipetted into a well of the cell culture plate. The cell culture plates are incubated at 37° C. for at least two hours, the supernatant solution is removed by suction and the wells are each washed twice with PBS. The coated cell culture plates are stored with supernatant PBS which is not removed until directly before the application of the cells.
The spinal column is removed from beheaded rats and placed directly into cold HBSS buffer (Hank's buffered saline solution, Gibco Invitrogen GmbH, Karlsruhe, Germany), i.e. placed in an ice bath, which has been admixed with 1% by volume of an AA solution (antibiotic/antimycotic solution, PAA, Pasching, Austria). The spinal column is severed longitudinally and removed from the spinal canal together with fasciae. Subsequently, the dorsal root ganglia (DRGs) are removed and in turn stored in cold HBSS buffer admixed with 1% by volume of an AA solution. The DRGs freed completely of blood residues and spinal nerves are in each case transferred to 500 μl of cold type 2 collagenase (PAA, Pasching, Austria) and incubated at 37° C. for 35 minutes. […] After complete incubation, the enzyme solution is cautiously pipetted off and the remaining DRGs are each suspended with 500 μl of complete medium.
The DRGs are each suspended repeatedly, drawn through cannulas No. 1, No. 12 and No. 16 by means of a syringe and transferred to 50 ml Falcon tubes which are made up to 15 ml with complete medium. The contents of each Falcon tube are in each case filtered through a 70 μm Falcon filter insert and centrifuged at 1200 revolutions and room temperature for 10 minutes. The resulting pellet is in each case taken up in 250 μl of complete medium and the cell count is determined.
The number of cells in the suspension is adjusted to 3 times 10^5 per ml and in each case 150 μl of this suspension are added to one well of the cell culture plates coated as described above.
Subsequently, the cells are laden with 2 μM Fluo-4 and 0.01% by volume of Pluronic F127 (Molecular Probes Europe BV, Leiden, the Netherlands) in HBSS buffer (Hank's buffered saline solution, Gibco Invitrogen GmbH, Karlsruhe, Germany) at 37° C. for 30 min, washed 3× with HBSS buffer and, after a further incubation of 15 minutes, used in the FLIPR assay at room temperature for Ca^2+ measurement. The Ca^2+-dependent fluorescence is measured before and after addition of substances (λex=488 nm, λem=540 nm). The quantification is effected by the measurement of the highest fluorescence intensity (FC, fluorescence counts) over the time.

[2] = molecular target: T2, VR1 (human) (Homo sapiens, UniProt Q8NER1); assay: Functional study on vanilloid receptor (VR1), FLIPR Ca2+ assay in CHO K1 cells stably transfected with the VR1 gene; format: cell-based; conditions: for inhibition at 10 µM / activation at 10 µM: CHO-K1, test compound 10 μM; for inhibition at 10 µM: 5 min incubation, then 100 nM capsaicin, compared to 10 μM CP; for activation at 10 µM: Ca2+ signal relative to 10 μM capsaicin (CP), read-out: VR1 (human) (% stimulation compared to 10 μM CP); for EC50: unit inferred
T2 construct: expressed in transfected cells; host or cells: CHO K1 cells (ECACC), stably transfected
Excerpt: The agonistic or antagonistic action of the substances to be tested on vanilloid receptor (VR1) can also be determined with the assay which follows. In this assay, the Ca^2+ current through the channel is quantified with the aid of a Ca^2+-sensitive dye (Fluo-4 type, Molecular Probes, Europe BV, Leiden, the Netherlands) in a fluorescent imaging plate reader (FLIPR, Molecular Devices, Sunnyvale, USA).
Chinese hamster ovary cells (CHO K1 cells, European Collection of Cell Cultures (ECACC) Great Britain) are transfected stably with the VR1 gene. For functional studies, these cells are plated out onto poly-D-lysine-coated black 96-well plates with a clear bottom (BD Biosciences, Heidelberg, Germany) in a density of 25 000 cells/well. The cells are incubated overnight at 37° C. and 5% CO2 in a culture medium (Ham's Nutrient Mixture F12, 10% by volume of FCS (fetal calf serum), 18 μg/ml of L-proline). The next day, the cells are incubated with Fluo-4 (Fluo-4 2 μM, Pluronic F127 0.01% by volume, Molecular Probes in HBSS (Hank's buffered saline solution), Gibco Invitrogen GmbH, Karlsruhe, Germany) at 37° C. for 30 minutes. Subsequently, the plates are washed 3 times with HBSS buffer and, after a further incubation of 15 minutes at room temperature, used for Ca^2+ measurement in FLIPR. The Ca^2+-dependent fluorescence is measured before and after addition of the substances to be studied (wavelength λex=488 nm, λem=540 nm). The quantification is effected by measuring the highest fluorescence intensity (FC, fluorescence counts) over the time.
The FLIPR protocol consists of 2 substance additions. First, the substances to be tested (10 μM) are pipetted onto the cells and the Ca current is compared with the control (capsaicin 10 μM) (% activation based on the Ca^2+ signal after addition of 10 μM capsaicin). After incubation for 5 minutes, 100 nM capsaicin is applied and the current of Ca^2+ is likewise determined.

T2 sequence (Q8NER1 whole entry): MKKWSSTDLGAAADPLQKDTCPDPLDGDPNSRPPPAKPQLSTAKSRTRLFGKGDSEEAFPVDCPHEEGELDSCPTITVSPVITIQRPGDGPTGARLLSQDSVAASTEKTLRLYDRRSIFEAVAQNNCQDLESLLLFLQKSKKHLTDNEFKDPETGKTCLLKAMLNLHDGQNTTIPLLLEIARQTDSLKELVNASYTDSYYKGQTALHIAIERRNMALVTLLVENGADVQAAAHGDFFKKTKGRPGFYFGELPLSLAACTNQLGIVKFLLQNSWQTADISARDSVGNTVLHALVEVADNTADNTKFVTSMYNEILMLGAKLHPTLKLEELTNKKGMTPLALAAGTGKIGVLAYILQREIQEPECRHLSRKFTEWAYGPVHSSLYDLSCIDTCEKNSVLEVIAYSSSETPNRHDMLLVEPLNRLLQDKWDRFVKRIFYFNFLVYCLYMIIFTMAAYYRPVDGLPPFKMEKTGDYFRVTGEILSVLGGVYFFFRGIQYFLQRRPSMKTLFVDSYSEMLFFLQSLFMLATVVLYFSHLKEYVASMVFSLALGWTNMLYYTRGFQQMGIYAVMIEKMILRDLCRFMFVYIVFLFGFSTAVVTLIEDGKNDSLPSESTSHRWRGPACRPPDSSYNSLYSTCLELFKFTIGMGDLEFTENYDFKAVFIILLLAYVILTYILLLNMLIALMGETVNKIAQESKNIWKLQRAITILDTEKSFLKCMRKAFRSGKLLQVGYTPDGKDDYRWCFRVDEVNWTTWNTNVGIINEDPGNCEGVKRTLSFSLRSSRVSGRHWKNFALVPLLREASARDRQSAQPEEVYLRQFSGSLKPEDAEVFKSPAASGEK
T1 sequence (O35433 whole entry): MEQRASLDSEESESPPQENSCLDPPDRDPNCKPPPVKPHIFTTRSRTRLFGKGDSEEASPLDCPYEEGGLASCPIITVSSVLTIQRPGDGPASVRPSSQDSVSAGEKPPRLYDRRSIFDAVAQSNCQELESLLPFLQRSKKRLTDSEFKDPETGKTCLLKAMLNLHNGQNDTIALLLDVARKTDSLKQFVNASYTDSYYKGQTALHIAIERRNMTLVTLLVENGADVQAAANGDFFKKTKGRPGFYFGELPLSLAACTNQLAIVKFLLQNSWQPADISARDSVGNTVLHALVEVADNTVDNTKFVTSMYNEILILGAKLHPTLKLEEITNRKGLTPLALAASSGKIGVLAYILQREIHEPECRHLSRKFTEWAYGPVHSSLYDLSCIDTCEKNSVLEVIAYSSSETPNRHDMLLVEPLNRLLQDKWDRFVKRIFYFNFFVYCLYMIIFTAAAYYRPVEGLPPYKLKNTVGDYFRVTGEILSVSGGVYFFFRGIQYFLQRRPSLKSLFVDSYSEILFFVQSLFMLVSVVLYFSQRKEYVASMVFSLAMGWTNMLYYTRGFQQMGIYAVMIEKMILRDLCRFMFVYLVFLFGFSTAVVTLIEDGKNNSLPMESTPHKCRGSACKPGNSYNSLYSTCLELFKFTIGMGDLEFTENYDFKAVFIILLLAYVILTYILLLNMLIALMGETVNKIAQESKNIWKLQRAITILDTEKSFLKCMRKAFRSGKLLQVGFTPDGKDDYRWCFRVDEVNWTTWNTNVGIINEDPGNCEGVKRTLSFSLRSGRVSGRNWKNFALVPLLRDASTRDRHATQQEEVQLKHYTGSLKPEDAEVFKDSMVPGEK

Structure (SMILES) | inhibition at 10 µM [1] | activation at 10 µM [1] | inhibition at 10 µM [2] | activation at 10 µM [2] | EC50 [1] | EC50 [2]
CC(=CC=C1SC(N2CCOCC2)=NC1=O)c1ccc(C(C)(C)C)cc1 [Example 34, 5-[3-(4-tert-butylphenyl)but-2-enylidene]-2-morpholin-4-ylthiazol-4-one] | 88% | 101% | 89.3% | 111% | – | –
O=C1N=C(N2CCOCC2)SC1=Cc1ccc(OC(F)(F)F)cc1 [Example 36, 2-morpholin-4-yl-5-(4-trifluoromethoxybenzylidene)thiazol-4-one] | 101% | 67.7% | 68.8% | 47.4% | – | –
COc1cc(C=C2SC(N3CCSCC3)=NC2=O)ccc1O [Example 39, 5-(4-hydroxy-3-methoxybenzylidene)-2-thiomorpholin-4-ylthiazol-4-one] | 51% | 31.2% | 23.7% | 18.9% | – | –
O=C1N=C(N2CCSCC2)SC1=Cc1cccc2ccccc12 [Example 41, 5-naphthalen-1-ylmethylene-2-thiomorpholin-4-ylthiazol-4-one] | 90.9% | 87% | 22.6% | 0.47% | 5.82 µM | 10.6 µM
O=C1N=C(N2CCSCC2)SC1=Cc1ccccc1 [Example 42, 5-benzylidene-2-thiomorpholin-4-ylthiazol-4-one] | 93.1% | 98.3% | 50.2% | 49.7% | – | –
CC(=CC=C1SC(N2CCOCC2)=NC1=O)c1cccc(C(F)(F)F)c1 [Example 44, 2-morpholin-4-yl-5-[3-(3-trifluoromethylphenyl)but-2-enylidene]thiazol-4-one] | 64.3% | 39.6% | 34.3% | 10.9% | – | –
O=C1N=C(N2CCN(c3ncccc3Cl)CC2)SC1=Cc1ccc2ccccc2c1 [Example 49, 2-[4-(3-chloropyridin-2-yl)piperazin-1-yl]-5-naphthalen-2-ylmethylenethiazol-4-one] | 78.5% | 0.4% | 34.1% | 0% | – | –
O=C1N=C(N2CCOCC2)SC1=CC(=Cc1ccccc1)c1ccccc1 [Example 50, 5-(2,3-diphenylallylidene)-2-morpholin-4-ylthiazol-4-one] | 21.3% | 7.19% | 51.6% | 0% | – | –
O=C1N=C(N2CCSCC2)SC1=Cc1ccc2ccccc2c1 [Example 54, 5-naphthalen-2-ylmethylene-2-thiomorpholin-4-ylthiazol-4-one] | 87.9% | 96.1% | 81.7% | 79.6% | 2.5 µM | > 25 µM
Cc1ccc(C=C2SC(N3CCN(Cc4ccccc4)CC3)=NC2=O)cc1 [Example 63, 2-(4-benzylpiperazin-1-yl)-5-(4-methylbenzylidene)thiazol-4-one] | 70.9% | 0.34% | 52.8% | 0% | – | –
COc1cc(C=C2SC(N3CCN(c4ccccc4)CC3)=NC2=O)ccc1O [Example 68, 5-(4-hydroxy-3-methoxybenzylidene)-2-(4-phenylpiperazin-1-yl)thiazol-4-one] | 11.6% | 73.4% | 39.3% | 54.3% | – | –
O=C1N=C(N2CCSCC2)SC1=CC(Cl)=Cc1ccccc1 [Example 85, 5-(2-chloro-3-phenylallylidene)-2-thiomorpholin-4-ylthiazol-4-one] | 77.1% | 54.9% | 97.5% | 82.5% | – | –
O=C1N=C(N2CCSCC2)SC1=Cc1cccc(C(=O)N2CCN(c3ncccc3Cl)CC2)c1 [Example 88, 5-{3-[4-(3-chloropyridin-2-yl)piperazine-1-carbonyl]benzylidene}-2-thiomorpholin-4-ylthiazol-4-one] | 90.1% | 72.8% | 71.1% | 61.4% | – | –
O=C(NC1=NC(=O)C(=Cc2ccc(C(F)(F)F)cc2)S1)Nc1ccccc1C(F)(F)F [Example 96, 1-[4-oxo-5-(4-trifluoromethylbenzylidene)-4,5-dihydrothiazol-2-yl]-3-(2-trifluoromethylphenyl)urea] | 27% | 28.5% | 54.6% | 5.03% | – | –
CC1CN(C(=O)c2cccc(C=C3SC(N4CCSCC4)=NC3=O)c2)CCN1c1ncccc1Cl (centres unmarked) [Example 110, 5-{3-[4-(3-chloropyridin-2-yl)-3-methylpiperazine-1-carbonyl]benzylidene}-2-thiomorpholin-4-ylthiazol-4-one] | 50.3% | 49.3% | 28.8% | 1.02% | – | –
O=C1N=C(N2CCSCC2)SC1=Cc1cccc(C(=O)N2CCN(c3ncc(C(F)(F)F)cc3Cl)CC2)c1 [Example 113, 5-{3-[4-(3-chloro-5-trifluoromethylpyridin-2-yl)piperazine-1-carbonyl]-benzylidene}-2-thiomorpholin-4-ylthiazol-4-one] | 97.4% | 136% | 97.8% | 90.3% | – | –
